Laboratory results from US20220218614A1, “IONIZABLE CATIONIC LIPIDS AND LIPID NANOPARTICLES, AND METHODS OF SYNTHESIS AND USE THEREOF” (Tidal Therapeutics, Inc., priority 2020, published 2022).
“And” between values parts separate entries of the source, which are not always exact repeats. Equal values may be shown once.

Assay: Apparent pKa of LNPs by TNS fluorescent probe
Format: physicochemical
Details: LNP made with the named ionizable lipid; pH at 50% of maximum TNS fluorescence
Source text: This example describes the fluorescent dye based method used for measurement of the apparent pKa of the lipid nanoparticles. Apparent pKa determines the nanoparticle surface charge under physiological pH conditions, typically a pKa value in the endosomal pH range (6-7.4) results in LNPs that are neutral or slightly charged at plasma or the extracellular space (pH 7.4) and become strongly positive under acidic endosomal environments. This positive surface charge drives fusion of the LNP surface with negatively charged endosomal membranes resulting in destabilization and rupture of the endosomal compartment and LNP escape into the cytosolic compartment, a critical step in cytosolic delivery of mRNA and protein expression via engagement of the cells ribosomal machinery.
The apparent pKa of LNPs made using ionizable Lipids 2, 5 (synthesized as described in example 1), 6 and 7 (synthesized using method analogous to Lipid 2, 5, respectively, except using diethyl amine instead of dimethyl amine to incorporate the tertiary amine head group) were determined by 6-(p-Toluidino)-2-naphthalenesulfonic acid (TNS) fluorescence measurement in aqueous buffers covering a range of pH values (pH 4-pH 10). TNS is non-fluorescent when free in solution, but which fluoresces strongly when associated with a positively charged lipid nanoparticle. At a pH values below the pKa of the nanoparticle, positive LNP surface charge results in dye recruitment at the particle interface resulting in TNS fluorescence. At pH values above the LNP pKa no fluorescence is observed. The apparent pKa of the LNP is reported as the pH at which the fluorescence is at 50% of its maximum, as determined using a four-point logistic curve fit.

CCCCC/C=C\C/C=C\CCCCCCCC(=O)OC[C@H](CCN(C)C)OC(=O)CCCCCCC/C=C\C/C=C\CCCCC [Lipid 5]
apparent pKa of LNP (TNS): 6.9 and ~7
